Source: patent US20150105252A1, “SUBSTITUTED PYRAZOLES AS HERBICIDES” (E I DU PONT DE NEMOURS AND COMPANY, priority 2013, published 2015)

Legend:
barnyardgrass [1] = experiment: Test B flood; type: in vivo, Echinochloa crus-galli; conditions: 250 g ai/ha, visual rating on 0 to 100 scale (0 no effect, 100 complete control), 13 to 15 days
Outline: (§1)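 Greenhouse assay lasting 13 to 15 days. Treatment was into water flooding pots 3 cm deep, at the 2-leaf stage, with that level sustained afterwards. Scores compare treated with control plants visually, 100 denoting complete control and 0 no effect; a dash marks no test result.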

barnyardgrass [2] = experiment: Test A postemergence; type: in vivo, Echinochloa crus-galli; conditions: Postemergence
Outline: (§2)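 Seeds were sown in a loam soil–sand blend and given a directed soil spray preemergence; postemergence plants at 2–10 cm, one- to two-leaf stage, were sprayed with compound in non-phytotoxic solvent with surfactant. After about 10 days in a greenhouse, injury was visually rated against untreated controls (0 = no effect, 100 = complete control).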

rice = experiment: Test B flood; type: in vivo, Oryza sativa; conditions: 250 g ai/ha, visual rating on 0 to 100 scale (0 no effect, 100 complete control), 13 to 15 days
Outline: as §1

pigweed [3] = experiment: Test A preemergence; type: in vivo, Amaranthus retroflexus; conditions: 0 to 100 scale
Outline: as §2

foxtail, giant [4] = experiment: Test A preemergence; type: in vivo, Setaria faberii; conditions: 0 to 100 scale
Outline: as §2

corn [5] = experiment: Test A postemergence; type: in vivo, Zea mays
Outline: as §2

foxtail, giant [6] = experiment: Test A postemergence; type: in vivo, Setaria faberii
Outline: as §2

barnyardgrass [7] = experiment: Test A preemergence; type: in vivo, Echinochloa crus-galli; conditions: 0 to 100 scale
Outline: as §2

wheat [8] = experiment: Test A postemergence; type: in vivo, Triticum aestivum
Outline: as §2

corn [9] = experiment: Test A preemergence; type: in vivo, Zea mays; conditions: 0 to 100 scale
Outline: as §2

morningglory [10] = experiment: Test A postemergence; type: in vivo, Ipomoea spp.
Outline: as §2

sedge, umbrella = experiment: Test B flood; type: in vivo, Cyperus difformis; conditions: 250 g ai/ha, visual rating on 0 to 100 scale (0 no effect, 100 complete control), 13 to 15 days
Protocol: Seeds selected from rice (Oryza sativa), sedge, umbrella (small-flower umbrella sedge Cyperus difformis), ducksalad (Heteranthera limosa), and barnyardgrass (Echinochloa crus-galli) were grown to the 2-leaf stage for testing. At time of treatment, test pots were flooded to 3 cm above the soil surface, treated by application of test compounds directly to the paddy water, and then maintained at that water depth for the duration of the test.
Treated plants and controls were maintained in a greenhouse for 13 to 15 days, after which time all species were compared to controls and visually evaluated. Plant response ratings, summarized in Table B, are based on a scale of 0 to 100 where 0 is no effect and 100 is complete control. A dash (-) response means no test result.

wheat [11] = experiment: Test A preemergence; type: in vivo, Triticum aestivum; conditions: preemergence
Outline: as §2

ducksalad = experiment: Test B flood; type: in vivo, Heteranthera limosa; conditions: 250 g ai/ha, visual rating on 0 to 100 scale (0 no effect, 100 complete control), 13 to 15 days
Outline: as §1

morningglory [12] = experiment: Test A preemergence; type: in vivo, Ipomoea spp.; conditions: 0 to 100 scale
Outline: as §2

pigweed [13] = experiment: Test A postemergence; type: in vivo, Amaranthus retroflexus
Outline: as §2

velvetleaf [14] = experiment: Test A postemergence; type: in vivo, Abutilon theophrasti
Outline: as §2

crabgrass, large [15] = experiment: Test A preemergence; type: in vivo, Digitaria sanguinalis; conditions: 0 to 100 scale
Outline: as §2

crabgrass, large [16] = experiment: Test A postemergence; type: in vivo, Digitaria sanguinalis
Outline: as §2

velvetleaf [17] = experiment: Test A preemergence; type: in vivo, Abutilon theophrasti; conditions: 0 to 100 scale
Outline: as §2

[18] = 125 g ai/ha, 0 to 100 scale, 0 no effect, 100 complete control
[19] = 500 g ai/ha, visual rating after approx. 10 days, 0 to 100 scale (0 no effect, 100 complete control)
[20] = Preemergence, 500 g ai/ha, 0 no effect, 100 complete control
[21] = preemergence, 125 g ai/ha, visual injury, approx. 10 days
[22] = Postemergence, 500 g ai/ha, visual rating after approx. 10 days, 0 to 100 scale (0 no effect, 100 complete control)
[23] = postemergence, 125 g ai/ha, about 10 days, visual rating on 0 to 100 scale (0 no effect, 100 complete control)
[24] = 125 g ai/ha, visual injury, 0 to 100 scale, approx. 10 days
[25] = 500 g ai/ha, visual injury after approx. 10 days, 0 to 100 scale (0 no effect, 100 complete control)

Compound	Plant response rating, Barnyardgrass (barnyardgrass [1])	Barnyardgrass plant response rating (barnyardgrass [2]; [18])	Barnyardgrass plant response rating (barnyardgrass [2]; [19])	Plant response rating, Rice (rice)	Pigweed plant response rating (pigweed [3]; [20])	Pigweed plant response rating (pigweed [3]; [21])	Foxtail, Giant plant response rating (foxtail, giant [4]; [20])	Foxtail, Giant plant response rating (foxtail, giant [4]; [21])	Corn plant response rating (corn [5]; [22])	Corn plant response rating (corn [5]; [23])	Foxtail, Giant plant response rating (foxtail, giant [6]; [22])	Foxtail, Giant plant response rating (foxtail, giant [6]; [23])	Barnyardgrass plant response rating (barnyardgrass [7]; [20])	Barnyardgrass plant response rating (barnyardgrass [7]; [21])	Wheat plant response rating (wheat [8]; [22])	Wheat plant response rating (wheat [8]; [23])	Corn plant response rating (corn [9]; [20])	Corn plant response rating (corn [9]; [21])	Morningglory plant response rating (morningglory [10]; [22])	Morningglory plant response rating (morningglory [10]; [23])	also measured
CCc1cc(C(=O)NC2CC2)nn1Oc1ccnc(C(F)(F)F)c1 [Compound 83, N-cyclopropyl-5-ethyl-1-[[(2-trifluoromethyl)-4-pyridinyl]oxy]-1H-pyrazole-3-carboxamide]	0	10	40	10	100	90	100	70	70	10	60	20	90	10	40	0	60	10	70	20	Plant response rating, Sedge, Umbrella (sedge, umbrella): 70; Wheat plant response rating (wheat [11]; [24]): 0; Wheat plant response rating (wheat [11]; [25]): 60; Plant response rating, Ducksalad (ducksalad): 60; Morningglory plant response rating (morningglory [12]; [20]): 50; Morningglory plant response rating (morningglory [12]; [21]): 10; Pigweed plant response rating (pigweed [13]; [22]): 20; Pigweed plant response rating (pigweed [13]; [23]): 10; Velvetleaf plant response rating (velvetleaf [14]; [22]): 30; Velvetleaf plant response rating (velvetleaf [14]; [23]): 30; Crabgrass, Large plant response rating (crabgrass, large [15]; [20]): 100; Crabgrass, Large plant response rating (crabgrass, large [15]; [21]): 100; Crabgrass, Large plant response rating (crabgrass, large [16]; [22]): 60; Crabgrass, Large plant response rating (crabgrass, large [16]; [23]): 30; Velvetleaf plant response rating (velvetleaf [17]; [20]): 10; Velvetleaf plant response rating (velvetleaf [17]; [21]): 0
CCc1cc(C(=O)NCC(F)(F)F)nn1Oc1ccnc(C(F)(F)F)c1 [Compound 84]	0	10	30	0	100	50	80	40	40	10	50	10	70	10	40	0	40	10	70	20	Plant response rating, Sedge, Umbrella (sedge, umbrella): 60; Wheat plant response rating (wheat [11]; [24]): 0; Wheat plant response rating (wheat [11]; [25]): 50; Plant response rating, Ducksalad (ducksalad): 20; Morningglory plant response rating (morningglory [12]; [20]): 30; Morningglory plant response rating (morningglory [12]; [21]): 0; Pigweed plant response rating (pigweed [13]; [22]): 20; Pigweed plant response rating (pigweed [13]; [23]): 10; Velvetleaf plant response rating (velvetleaf [14]; [22]): 30; Velvetleaf plant response rating (velvetleaf [14]; [23]): 20; Crabgrass, Large plant response rating (crabgrass, large [15]; [20]): 100; Crabgrass, Large plant response rating (crabgrass, large [15]; [21]): 90; Crabgrass, Large plant response rating (crabgrass, large [16]; [22]): 50; Crabgrass, Large plant response rating (crabgrass, large [16]; [23]): 20; Velvetleaf plant response rating (velvetleaf [17]; [20]): 50; Velvetleaf plant response rating (velvetleaf [17]; [21]): 0
